This is an account of results in publication PMC9599613 (Biomolecules, 2022).

The term inhibition denotes the drop in the measured response relative to a control, in per cent. The term IC50 denotes the concentration at which inhibition is half-maximal.

Experiment [1] is described as follows: ABTS free radical scavenging assay. Here is the method:
The antioxidant potentials of isolated phytosteroids 1 and 2 were also determined using the ABTS (2,2′-azino-bis(3-ethylbenzothiazoline-6-sulfonic acid)) standard method. […] This created free radicals within the sample. Afterward, the addition of 50% methanol and the ABTS radical cation solution were adjusted to pH 7.4 by dilution with the phosphate buffer (pH 7.4). […] The positive control was ascorbic acid, and the assay was repeated in triplicate. The percent radical scavenging potential of the test compounds was calculated using the standard reported formula.

Another experiment deals with COX-1 (Homo sapiens, UniProt P23219). Nature of the experiment: biochemical. To be noted: read-out: % COX-1 Inhibition. Here is the method:
(§1) The Cyclooxygenase enzymes (COX-1 and 2) inhibitory potential of our test compounds was determined according to the previously reported procedure. […] The enzyme solutions with a concentration of 0.7–0.8 μg/10 μL (COX-1) and 300 U/mL (COX-2) were prepared. To start the assay, for enzyme activation, 10 µL enzyme solution (kept in a cool temperature of 4 °C for 5 min) and cofactor containing hematin (50 µL, 1 mM), glutathione (0.9 mM) and TMPD in a Tris-buffer (0.1 M) with a pH 8.0 was added. After that, 60 µL of the enzyme solution was added to 20 µL of the test samples of various concentrations and incubated at room temperature for 5 to 10 min. Then, 20 µL of arachidonic acid (30 mM) was added to start the reaction. The mixture was then again incubated for 15 min at 37 °C, and absorbances were measured at 570 nm with UV-visible spectrophotometer. […] The % enzyme inhibitions were calculated by using the previously reported formula.

For the next experiment, the target named is T1, COX-2 (Homo sapiens, UniProt P35354).
T1 sequence (P35354 18-604): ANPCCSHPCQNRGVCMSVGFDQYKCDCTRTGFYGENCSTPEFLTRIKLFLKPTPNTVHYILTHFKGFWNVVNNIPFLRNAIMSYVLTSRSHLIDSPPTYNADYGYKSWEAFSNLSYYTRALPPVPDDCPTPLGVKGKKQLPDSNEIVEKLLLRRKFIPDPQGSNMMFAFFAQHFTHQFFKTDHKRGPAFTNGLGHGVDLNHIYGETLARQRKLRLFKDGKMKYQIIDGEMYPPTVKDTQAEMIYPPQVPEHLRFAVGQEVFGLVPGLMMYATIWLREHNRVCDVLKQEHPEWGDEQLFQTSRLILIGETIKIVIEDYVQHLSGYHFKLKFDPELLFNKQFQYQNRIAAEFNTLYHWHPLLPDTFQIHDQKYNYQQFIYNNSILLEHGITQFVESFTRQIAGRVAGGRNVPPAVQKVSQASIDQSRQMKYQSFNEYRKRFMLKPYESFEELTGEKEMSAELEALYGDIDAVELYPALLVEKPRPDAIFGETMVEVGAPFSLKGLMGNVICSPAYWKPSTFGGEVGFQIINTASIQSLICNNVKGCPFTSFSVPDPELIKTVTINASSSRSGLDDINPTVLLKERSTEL
As to the kind of experiment: biochemical. Here is the method:
as §1

Experiment [2] has as its target T2, butyrylcholinesterase (BChE) (Equus caballus, UniProt P81908).
T2 construct: butyrylcholinesterase (BChE, obtained from equine serum); from tissue; host or cells: equine serum
As to the kind of experiment: Anticholinesterase assay (Ellman's), BChE inhibition. Type of experiment: biochemical, equine. The method, then: This enzyme method relied on the hydrolytic of acetyl cholinethioiodide (ATChI) by acetylcholinesterase and butyrylthiocholine iodide (BTchI) by butyrylcholinesterase. As a result of this breakdown, 5-thio-2-nitrobenoate anions formed. […] The absorption was measured with a spectrophotometer, as per the protocols. […] An amount of 0.1 M phosphate buffer (8.0 ± 0.1 pH) solution was prepared, whose final pH was adjusted by using the KOH solution.
In this assay, 50 µL enzyme solution and 50 µL DTNB reagent were added to 1 mL test samples in a cuvette and then incubated at 30 °C for 15 min. Afterward, a 50 µL substrate solution was added to the mixture.

T2 sequence (P81908 whole entry): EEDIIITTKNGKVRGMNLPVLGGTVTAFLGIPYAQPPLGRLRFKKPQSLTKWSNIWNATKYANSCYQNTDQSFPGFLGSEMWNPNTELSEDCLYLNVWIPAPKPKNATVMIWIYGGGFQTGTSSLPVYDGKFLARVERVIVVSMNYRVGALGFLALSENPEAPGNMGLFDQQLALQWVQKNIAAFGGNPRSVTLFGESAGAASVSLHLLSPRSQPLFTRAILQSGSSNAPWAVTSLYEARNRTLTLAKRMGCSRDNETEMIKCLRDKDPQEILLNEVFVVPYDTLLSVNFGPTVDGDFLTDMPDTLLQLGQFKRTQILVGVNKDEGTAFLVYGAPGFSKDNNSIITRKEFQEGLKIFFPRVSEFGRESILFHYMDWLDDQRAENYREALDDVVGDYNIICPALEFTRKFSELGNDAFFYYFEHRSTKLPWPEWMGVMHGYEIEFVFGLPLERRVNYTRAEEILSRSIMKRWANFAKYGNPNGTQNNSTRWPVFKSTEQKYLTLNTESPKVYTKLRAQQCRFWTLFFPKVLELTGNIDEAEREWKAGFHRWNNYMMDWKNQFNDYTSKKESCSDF
Chain of COX-1 (P23219 24-599): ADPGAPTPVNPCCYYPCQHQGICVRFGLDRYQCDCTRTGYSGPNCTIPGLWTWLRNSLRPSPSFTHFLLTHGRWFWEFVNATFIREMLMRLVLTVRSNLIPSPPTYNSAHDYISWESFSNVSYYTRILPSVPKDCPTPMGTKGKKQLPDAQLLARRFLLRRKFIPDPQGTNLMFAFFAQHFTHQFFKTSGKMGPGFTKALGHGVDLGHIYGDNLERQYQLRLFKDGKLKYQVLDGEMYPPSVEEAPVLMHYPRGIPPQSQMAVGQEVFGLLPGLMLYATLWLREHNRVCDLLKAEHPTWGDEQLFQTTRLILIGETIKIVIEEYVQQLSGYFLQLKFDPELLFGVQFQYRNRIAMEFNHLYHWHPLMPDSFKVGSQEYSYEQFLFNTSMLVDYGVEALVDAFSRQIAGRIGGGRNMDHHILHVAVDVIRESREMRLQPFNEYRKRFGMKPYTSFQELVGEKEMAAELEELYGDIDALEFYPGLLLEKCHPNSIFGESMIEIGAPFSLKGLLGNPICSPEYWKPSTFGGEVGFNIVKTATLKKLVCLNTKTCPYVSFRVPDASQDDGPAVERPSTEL

For the compound `CCC(CCC(C)C1CCC2C3CCC4=CC(=O)CCC4(C)C3CCC12C)C(C)C` (stereo not drawn) [Compound 2, 17-(5-ethyl-6-methylheptan-2-yl)-10,13-dimethyl-1,2,6,7,8,9,10,11,12,13,14,15,16,17-tetradecahydro-3H-cyclopenta[a]phenanthren-3-one], the “ABTS IC50” value in experiment [1] came to 185.83 µg/mL. The “Percent ABTS Activity (mean ± SEM)” value came to 41.34 ± 1.01 % in experiment [1] (62.5 μg/mL); 46.73 ± 0.78 % in experiment [1] (125 μg/mL); 51.37 ± 1.65 % in experiment [1] (250 μg/mL); 57.85 ± 0.97 % in experiment [1] (500 μg/mL); 65.17 ± 0.72 % in experiment [1] (1000 μg/mL); 65.17 ± 0.72% in experiment [1] (1000 μg/mL, listed as compound 2). Moreover, the inhibition at 62.5 µg/mL at COX-1 was determined as 32.5 ± 0.65%; at COX-2 (62.50 μg/mL, read-out: % COX-2 Inhibition), 61.9 ± 1.13%. The inhibition at 125 µg/mL was determined as 37.7 ± 0.45% at COX-1 and 68.3 ± 0.64% on COX-2 (125 μg/mL, read-out: % COX-2 Inhibition). Also, the inhibition at 250 µg/mL on COX-1 was 44.86 ± 0.02%; on COX-2 (250 μg/mL, read-out: % COX-2 Inhibition), 73.34 ± 0.63%. The inhibition at 500 µg/mL is 51.67 ± 0.11% at COX-1 and 78.3 ± 0.64% at COX-2 (500 μg/mL, read-out: % COX-2 Inhibition). In addition, the inhibition at 1000 µg/mL on COX-1 was found to be 57.6 ± 1.18%; at COX-2 (1000 μg/mL, read-out: % COX-2 Inhibition), 83.17 ± 0.72%. Besides, the IC50 at COX-2 (read-out: COX-2 IC50 (converted)) was 20.5 µM; in experiment [2], 25.8 µM. Further, the “Percent BChE (mean ± SEM)” value is 61.35 ± 0.18 % in experiment [2] (62.5 μg/mL); 66.20 ± 0.15 % in experiment [2] (125 μg/mL); 73.42 ± 0.11 % in experiment [2] (250 μg/mL); 78.62 ± 0.17 % in experiment [2] (500 μg/mL); 83.53 ± 0.20 % in experiment [2] (1000 μg/mL).
